These results are taken from patent publication US20140273094A1, “METHODS OF ENHANCING PROTEIN QUALITY AND QUANTITY BY YEAST FED-BATCH FERMENTATION” (BRISTOL-MYERS SQUIBB COMPANY, priority 2013, published 2014).

The experiment relates to P. pastoris. The experiment can be described thus: Effect of hydroxyurea on cell growth and antibody productivity in fed-batch fermentation, Run 01MAY11. The format is cell-based, Pichia pastoris. As to the method: The glucose and ethanol were measured by YSI 2700 (YSI Incorporated, Yellow Springs, Ohio), O2 and CO2 of the exhaust line were measured by Questor GP Process Mass Spectrometer (ABB Extrel, Pittsburgh, Pa.) and the RQ value was calculated using below Equation [1]. The wet cell weight (WCW) was measured by centrifuging 1 milliliter (mL) fermentation broth at 13,200 rpm for 10 minutes, weighing pellet, and calculated ratio of pellets weight (g) over volume (mL). The supernatant titer (g/L) was measured by the HPLC method and the whole broth (WB) titer was then calculated by below Equation [2].
WB_Titer=Supernatant_Titer*(1−WCW/1000)
The treatment cultures were operated the same way plus adding hydroxyurea 5 hours after feed start.

On to `NC(=O)NO` [Hydroxyurea], for which the “average whole broth titer” value (90 hours run time, three hydroxyurea treatment lots) amounted to 75 normalized units. For the same molecule, the “WCW reached and maintained by hydroxyurea treatment lots” value (after peak cell density at 30-40 hours, control lots ~400 g/Kg) is approximately 450 g/kg.
